Source: PubChem BioAssay (NCI)
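Assay format: 96-well plates, 48-hour exposure. TGI marks complete inhibition of growth.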

Tests used:
Test in all cases: inhibition of tumour cell growth, NCI panel, 48 h
786-0 renal = test system: 786-0 renal
A498 renal = test system: A498 renal
A549 NSCLC = test system: A549 NSCLC
ACHN renal = test system: ACHN renal
BT-549 breast = test system: BT-549 breast
CAKI-1 renal = test system: CAKI-1 renal
CCRF-CEM leukemia = test system: CCRF-CEM leukemia
COLO 205 colon = test system: COLO 205 colon
DU-145 prostate = test system: DU-145 prostate
EKVX NSCLC = test system: EKVX NSCLC
HCC-2998 colon = test system: HCC-2998 colon
HCT-116 colon = test system: HCT-116 colon
HCT-15 colon = test system: HCT-15 colon
HL-60(TB) leukemia = test system: HL-60(TB) leukemia
HOP-62 NSCLC = test system: HOP-62 NSCLC
HOP-92 NSCLC = test system: HOP-92 NSCLC
HT29 colon = test system: HT29 colon
IGROV1 ovarian = test system: IGROV1 ovarian
K-562 leukemia = test system: K-562 leukemia
KM12 colon = test system: KM12 colon
LOX IMVI melanoma = test system: LOX IMVI melanoma
M14 melanoma = test system: M14 melanoma
MCF7 breast = test system: MCF7 breast
MDA-MB-231 breast = test system: MDA-MB-231 breast
MDA-MB-435 = test system: MDA-MB-435
MDA-N = test system: MDA-N
MOLT-4 leukemia = test system: MOLT-4 leukemia
NCI-H226 lung = test system: NCI-H226 lung
NCI-H23 lung = test system: NCI-H23 lung
NCI-H460 lung = test system: NCI-H460 lung
NCI/ADR-RES ovarian = test system: NCI/ADR-RES ovarian
OVCAR-3 ovarian = test system: OVCAR-3 ovarian
OVCAR-4 ovarian = test system: OVCAR-4 ovarian
OVCAR-5 ovarian = test system: OVCAR-5 ovarian
OVCAR-8 ovarian = test system: OVCAR-8 ovarian
PC-3 prostate = test system: PC-3 prostate
RPMI-8226 leukemia = test system: RPMI-8226 leukemia
SF-295 CNS = test system: SF-295 CNS
SF-539 CNS = test system: SF-539 CNS
SK-MEL-2 melanoma = test system: SK-MEL-2 melanoma
SK-MEL-28 melanoma = test system: SK-MEL-28 melanoma
SK-MEL-5 melanoma = test system: SK-MEL-5 melanoma
SK-OV-3 ovarian = test system: SK-OV-3 ovarian
SN12C renal = test system: SN12C renal
SNB-19 CNS = test system: SNB-19 CNS
SR leukemia = test system: SR leukemia
SW-620 colon = test system: SW-620 colon
TK-10 renal = test system: TK-10 renal
U251 CNS = test system: U251 CNS
UACC-257 melanoma = test system: UACC-257 melanoma
UACC-62 melanoma = test system: UACC-62 melanoma
UO-31 renal = test system: UO-31 renal

## CS(=O)(=O)OCOS(C)(=O)=O
786-0 renal
  TGI: > 100 µM
A498 renal
  TGI: > 100 µM
A549 NSCLC
  TGI: > 100 µM
ACHN renal
  TGI: > 100 µM
BT-549 breast
  TGI: > 100 µM
CAKI-1 renal
  TGI: > 100 µM
CCRF-CEM leukemia
  TGI: 44.5 µM
COLO 205 colon
  TGI: > 100 µM
DU-145 prostate
  TGI: > 100 µM
EKVX NSCLC
  TGI: > 100 µM
HCC-2998 colon
  TGI: > 100 µM
HCT-116 colon
  TGI: > 100 µM
HCT-15 colon
  TGI: > 100 µM
HL-60(TB) leukemia
  TGI: > 100 µM
HOP-62 NSCLC
  TGI: > 100 µM
HOP-92 NSCLC
  TGI: > 100 µM
HT29 colon
  TGI: > 100 µM
IGROV1 ovarian
  TGI: > 100 µM
K-562 leukemia
  TGI: > 100 µM
KM12 colon
  TGI: > 100 µM
LOX IMVI melanoma
  TGI: > 100 µM
M14 melanoma
  TGI: > 100 µM
MCF7 breast
  TGI: > 100 µM
MDA-MB-231 breast
  TGI: > 100 µM
MDA-MB-435
  TGI: > 100 µM
MDA-N
  TGI: > 100 µM
MOLT-4 leukemia
  TGI: > 100 µM
NCI-H226 lung
  TGI: > 100 µM
NCI-H23 lung
  TGI: > 100 µM
NCI-H460 lung
  TGI: > 100 µM
NCI/ADR-RES ovarian
  TGI: > 100 µM
OVCAR-3 ovarian
  TGI: > 100 µM
OVCAR-4 ovarian
  TGI: > 100 µM
OVCAR-5 ovarian
  TGI: > 100 µM
OVCAR-8 ovarian
  TGI: > 100 µM
PC-3 prostate
  TGI: > 100 µM
RPMI-8226 leukemia
  TGI: > 100 µM
SF-295 CNS
  TGI: > 100 µM
SF-539 CNS
  TGI: > 100 µM
SK-MEL-2 melanoma
  TGI: > 100 µM
SK-MEL-28 melanoma
  TGI: > 100 µM
SK-MEL-5 melanoma
  TGI: > 100 µM
SK-OV-3 ovarian
  TGI: > 100 µM
SN12C renal
  TGI: > 100 µM
SNB-19 CNS
  TGI: > 100 µM
SR leukemia
  TGI: 47.9 µM
SW-620 colon
  TGI: > 100 µM
TK-10 renal
  TGI: > 100 µM
U251 CNS
  TGI: > 100 µM
UACC-257 melanoma
  TGI: > 100 µM
UACC-62 melanoma
  TGI: > 100 µM
UO-31 renal
  TGI: > 100 µM
